The text below walks through data of PubChem BioAssay (NCI).

SMILES strings stand for the structures.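 Briefly, cells in 96-well plates were exposed to five compound concentrations for 48 h, and endpoints were estimated by linear interpolation. At the TGI there is no net growth.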

For one assay, the system named is HCT-15 colon. Briefly: NCI tumour cell line growth inhibition, 48 h.
For the molecule `CCOc1cc(NC(C)=O)ccc1C(=O)NN1C(=O)C(Cl)C1c1ccccc1` (stereo not given), the TGI came to 45.4 µM.

On to `CCCCCCCCCCCCCCCCCCNc1ccn(C2OC(COP(=O)(O)OCC3OC(n4cc(F)c(=O)[nH]c4=O)CC3O)C(O)C2O)c(=O)n1` (stereo not given), for which the TGI is more than 100 µM.

`CC(C)=CCC/C(C)=C/CC/C(C)=C/CC/C(C)=C/C=C/C=C(\C)CC/C=C(\C)CC/C=C(\C)CCC=C(C)C`: the TGI was more than 100 µM.

`CN(CCCCCl)P(=O)(OCc1ccc([N+](=O)[O-])o1)OC[C@H]1O[C@@H](n2cc(F)c(=O)[nH]c2=O)C[C@@H]1O` (stereo not given in full) returned a TGI of more than 100 µM.

Regarding `CCCCCCCCCCCCCCCCCCNC(=O)C(N)Cc1ccc(OCc2ccccc2)cn1` (stereo not given), the TGI amounted to 37.3 µM.

The molecule `CC(C)Cn1cnc2c(NCC(C)O)nc3ccccc3c21` (stereo not given) had a TGI of more than 100 µM.

The subject of the next assay is NCI/ADR-RES ovarian. Briefly: NCI tumour cell line growth inhibition, 48 h.
The molecule `CCOc1cc(NC(C)=O)ccc1C(=O)NN1C(=O)C(Cl)C1c1ccccc1` (stereo not given) showed a TGI of 88.5 µM.

In the case of `CCCCCCCCCCCCCCCCCCNc1ccn(C2OC(COP(=O)(O)OCC3OC(n4cc(F)c(=O)[nH]c4=O)CC3O)C(O)C2O)c(=O)n1` (stereo not given), the TGI was more than 54.8 µM.

As for `CC(C)=CCC/C(C)=C/CC/C(C)=C/CC/C(C)=C/C=C/C=C(\C)CC/C=C(\C)CC/C=C(\C)CCC=C(C)C`, the TGI is more than 82.9 µM.

In the case of `CN(CCCCCl)P(=O)(OCc1ccc([N+](=O)[O-])o1)OC[C@H]1O[C@@H](n2cc(F)c(=O)[nH]c2=O)C[C@@H]1O` (stereo not given in full), the TGI was determined as 36.3 µM.

`CCCCCCCCCCCCCCCCCCNC(=O)C(N)Cc1ccc(OCc2ccccc2)cn1` (stereo not given) registered a TGI of 38.4 µM.

Consider `CC(C)Cn1cnc2c(NCC(C)O)nc3ccccc3c21` (stereo not given), for which the TGI is more than 100 µM.

The next assay deals with UACC-62 melanoma. Briefly: NCI tumour cell line growth inhibition, 48 h.
Turning to `CCOc1cc(NC(C)=O)ccc1C(=O)NN1C(=O)C(Cl)C1c1ccccc1` (stereo not given), the TGI worked out at 23.3 µM.

`CCCCCCCCCCCCCCCCCCNc1ccn(C2OC(COP(=O)(O)OCC3OC(n4cc(F)c(=O)[nH]c4=O)CC3O)C(O)C2O)c(=O)n1` (stereo not given) had a TGI of more than 74.4 µM.

Turning to `CC(C)=CCC/C(C)=C/CC/C(C)=C/CC/C(C)=C/C=C/C=C(\C)CC/C=C(\C)CC/C=C(\C)CCC=C(C)C`, the TGI is more than 100 µM.

Molecule `CN(CCCCCl)P(=O)(OCc1ccc([N+](=O)[O-])o1)OC[C@H]1O[C@@H](n2cc(F)c(=O)[nH]c2=O)C[C@@H]1O` (stereo not given in full) displayed a TGI of 6.48 µM.

On to `CCCCCCCCCCCCCCCCCCNC(=O)C(N)Cc1ccc(OCc2ccccc2)cn1` (stereo not given), for which the TGI came to 32.2 µM.

In turn, `CC(C)Cn1cnc2c(NCC(C)O)nc3ccccc3c21` (stereo not given) came in with a TGI of more than 100 µM.

The test system of a further assay is HCT-116 colon. Briefly: NCI tumour cell line growth inhibition, 48 h.
Molecule `CCOc1cc(NC(C)=O)ccc1C(=O)NN1C(=O)C(Cl)C1c1ccccc1` (stereo not given) registered a TGI of 38.9 µM.

On to `CCCCCCCCCCCCCCCCCCNc1ccn(C2OC(COP(=O)(O)OCC3OC(n4cc(F)c(=O)[nH]c4=O)CC3O)C(O)C2O)c(=O)n1` (stereo not given), for which the TGI was more than 100 µM.

The molecule `CC(C)=CCC/C(C)=C/CC/C(C)=C/CC/C(C)=C/C=C/C=C(\C)CC/C=C(\C)CC/C=C(\C)CCC=C(C)C` gave a TGI of more than 100 µM.

For `CN(CCCCCl)P(=O)(OCc1ccc([N+](=O)[O-])o1)OC[C@H]1O[C@@H](n2cc(F)c(=O)[nH]c2=O)C[C@@H]1O` (stereo not given in full), the TGI is more than 43.8 µM.

`CCCCCCCCCCCCCCCCCCNC(=O)C(N)Cc1ccc(OCc2ccccc2)cn1` (stereo not given): the TGI is 38.2 µM.

As for `CC(C)Cn1cnc2c(NCC(C)O)nc3ccccc3c21` (stereo not given), the TGI was more than 100 µM.

The subject of a further assay is MCF7 breast. Briefly: NCI tumour cell line growth inhibition, 48 h.
`CCOc1cc(NC(C)=O)ccc1C(=O)NN1C(=O)C(Cl)C1c1ccccc1` (stereo not given) had a TGI of 22.9 µM.

In turn, `CCCCCCCCCCCCCCCCCCNc1ccn(C2OC(COP(=O)(O)OCC3OC(n4cc(F)c(=O)[nH]c4=O)CC3O)C(O)C2O)c(=O)n1` (stereo not given) had a TGI of more than 48.6 µM.

The molecule `CC(C)=CCC/C(C)=C/CC/C(C)=C/CC/C(C)=C/C=C/C=C(\C)CC/C=C(\C)CC/C=C(\C)CCC=C(C)C` yielded a TGI of more than 100 µM.

As to `CN(CCCCCl)P(=O)(OCc1ccc([N+](=O)[O-])o1)OC[C@H]1O[C@@H](n2cc(F)c(=O)[nH]c2=O)C[C@@H]1O` (stereo not given in full), the TGI was found to be 4.45 µM.

`CCCCCCCCCCCCCCCCCCNC(=O)C(N)Cc1ccc(OCc2ccccc2)cn1` (stereo not given) returned a TGI of 35.8 µM.

Consider `CC(C)Cn1cnc2c(NCC(C)O)nc3ccccc3c21` (stereo not given), for which the TGI is more than 100 µM.

The test system of another assay is SNB-19 CNS. Briefly: NCI tumour cell line growth inhibition, 48 h.
In the case of `CCOc1cc(NC(C)=O)ccc1C(=O)NN1C(=O)C(Cl)C1c1ccccc1` (stereo not given), the TGI came out at 28.4 µM.

For the molecule `CCCCCCCCCCCCCCCCCCNc1ccn(C2OC(COP(=O)(O)OCC3OC(n4cc(F)c(=O)[nH]c4=O)CC3O)C(O)C2O)c(=O)n1` (stereo not given), the TGI is more than 100 µM.

For `CC(C)=CCC/C(C)=C/CC/C(C)=C/CC/C(C)=C/C=C/C=C(\C)CC/C=C(\C)CC/C=C(\C)CCC=C(C)C`, the TGI was more than 100 µM.

For the molecule `CN(CCCCCl)P(=O)(OCc1ccc([N+](=O)[O-])o1)OC[C@H]1O[C@@H](n2cc(F)c(=O)[nH]c2=O)C[C@@H]1O` (stereo not given in full), the TGI was more than 55.3 µM.

`CCCCCCCCCCCCCCCCCCNC(=O)C(N)Cc1ccc(OCc2ccccc2)cn1` (stereo not given): the TGI was 42.5 µM.

In turn, `CC(C)Cn1cnc2c(NCC(C)O)nc3ccccc3c21` (stereo not given) displayed a TGI of more than 100 µM.

In the next assay the test system is A498 renal. Briefly: NCI tumour cell line growth inhibition, 48 h.
Consider `CCOc1cc(NC(C)=O)ccc1C(=O)NN1C(=O)C(Cl)C1c1ccccc1` (stereo not given), for which the TGI was found to be 31.7 µM.

`CCCCCCCCCCCCCCCCCCNc1ccn(C2OC(COP(=O)(O)OCC3OC(n4cc(F)c(=O)[nH]c4=O)CC3O)C(O)C2O)c(=O)n1` (stereo not given) displayed a TGI of more than 100 µM.

`CC(C)=CCC/C(C)=C/CC/C(C)=C/CC/C(C)=C/C=C/C=C(\C)CC/C=C(\C)CC/C=C(\C)CCC=C(C)C`: the TGI was more than 100 µM.

The molecule `CN(CCCCCl)P(=O)(OCc1ccc([N+](=O)[O-])o1)OC[C@H]1O[C@@H](n2cc(F)c(=O)[nH]c2=O)C[C@@H]1O` (stereo not given in full) gave a TGI of 0.0982 µM.

With `CCCCCCCCCCCCCCCCCCNC(=O)C(N)Cc1ccc(OCc2ccccc2)cn1` (stereo not given), the TGI turned out to be 35.4 µM.

As for `CC(C)Cn1cnc2c(NCC(C)O)nc3ccccc3c21` (stereo not given), the TGI is more than 100 µM.

Another assay has as its system HOP-62 NSCLC. Briefly: NCI tumour cell line growth inhibition, 48 h.
`CCOc1cc(NC(C)=O)ccc1C(=O)NN1C(=O)C(Cl)C1c1ccccc1` (stereo not given): the TGI is 44.4 µM.

Molecule `CCCCCCCCCCCCCCCCCCNc1ccn(C2OC(COP(=O)(O)OCC3OC(n4cc(F)c(=O)[nH]c4=O)CC3O)C(O)C2O)c(=O)n1` (stereo not given) registered a TGI of more than 100 µM.

Turning to `CC(C)=CCC/C(C)=C/CC/C(C)=C/CC/C(C)=C/C=C/C=C(\C)CC/C=C(\C)CC/C=C(\C)CCC=C(C)C`, the TGI was more than 100 µM.

`CN(CCCCCl)P(=O)(OCc1ccc([N+](=O)[O-])o1)OC[C@H]1O[C@@H](n2cc(F)c(=O)[nH]c2=O)C[C@@H]1O` (stereo not given in full) came in with a TGI of 25.6 µM.

`CCCCCCCCCCCCCCCCCCNC(=O)C(N)Cc1ccc(OCc2ccccc2)cn1` (stereo not given) gave a TGI of 40 µM.

`CC(C)Cn1cnc2c(NCC(C)O)nc3ccccc3c21` (stereo not given) yielded a TGI of more than 100 µM.

The next assay has as its system RXF 393 renal. Briefly: NCI tumour cell line growth inhibition, 48 h.
As for `CCOc1cc(NC(C)=O)ccc1C(=O)NN1C(=O)C(Cl)C1c1ccccc1` (stereo not given), the TGI stood at 33.5 µM.

In the case of `CCCCCCCCCCCCCCCCCCNc1ccn(C2OC(COP(=O)(O)OCC3OC(n4cc(F)c(=O)[nH]c4=O)CC3O)C(O)C2O)c(=O)n1` (stereo not given), the TGI was 35.6 µM.

`CC(C)=CCC/C(C)=C/CC/C(C)=C/CC/C(C)=C/C=C/C=C(\C)CC/C=C(\C)CC/C=C(\C)CCC=C(C)C`: the TGI is more than 100 µM.

Regarding `CN(CCCCCl)P(=O)(OCc1ccc([N+](=O)[O-])o1)OC[C@H]1O[C@@H](n2cc(F)c(=O)[nH]c2=O)C[C@@H]1O` (stereo not given in full), the TGI is 17.4 µM.

Molecule `CCCCCCCCCCCCCCCCCCNC(=O)C(N)Cc1ccc(OCc2ccccc2)cn1` (stereo not given) had a TGI of 42.4 µM.

`CC(C)Cn1cnc2c(NCC(C)O)nc3ccccc3c21` (stereo not given): the TGI is more than 100 µM.

The subject of the next assay is OVCAR-8 ovarian. Briefly: NCI tumour cell line growth inhibition, 48 h.
On to `CCOc1cc(NC(C)=O)ccc1C(=O)NN1C(=O)C(Cl)C1c1ccccc1` (stereo not given), for which the TGI was more than 100 µM.

Turning to `CCCCCCCCCCCCCCCCCCNc1ccn(C2OC(COP(=O)(O)OCC3OC(n4cc(F)c(=O)[nH]c4=O)CC3O)C(O)C2O)c(=O)n1` (stereo not given), the TGI was more than 100 µM.

The molecule `CC(C)=CCC/C(C)=C/CC/C(C)=C/CC/C(C)=C/C=C/C=C(\C)CC/C=C(\C)CC/C=C(\C)CCC=C(C)C` returned a TGI of more than 88.2 µM.

`CN(CCCCCl)P(=O)(OCc1ccc([N+](=O)[O-])o1)OC[C@H]1O[C@@H](n2cc(F)c(=O)[nH]c2=O)C[C@@H]1O` (stereo not given in full): the TGI was more than 100 µM.

In turn, `CCCCCCCCCCCCCCCCCCNC(=O)C(N)Cc1ccc(OCc2ccccc2)cn1` (stereo not given) came in with a TGI of 37.3 µM.

Consider `CC(C)Cn1cnc2c(NCC(C)O)nc3ccccc3c21` (stereo not given), for which the TGI is more than 100 µM.
